According to PubChem BioAssay (NCI):
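Cultured in 96-well plates, cells were exposed to test compound for 48 hours across five concentrations. TGI: concentration producing complete growth inhibition.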

What was measured:
Experiment in all cases: inhibition of tumour cell growth, NCI panel, 48 h
HS 578T breast = tested on: HS 578T breast
NCI-H522 lung = tested on: NCI-H522 lung
UO-31 renal = tested on: UO-31 renal
PC-3 prostate = tested on: PC-3 prostate
T-47D breast = tested on: T-47D breast
COLO 205 colon = tested on: COLO 205 colon
MCF7 breast = tested on: MCF7 breast
ACHN renal = tested on: ACHN renal
OVCAR-5 ovarian = tested on: OVCAR-5 ovarian
HL-60(TB) leukemia = tested on: HL-60(TB) leukemia
HCT-116 colon = tested on: HCT-116 colon
HCC-2998 colon = tested on: HCC-2998 colon
RPMI-8226 leukemia = tested on: RPMI-8226 leukemia
786-0 renal = tested on: 786-0 renal
SN12C renal = tested on: SN12C renal
NCI-H226 lung = tested on: NCI-H226 lung
MALME-3M melanoma = tested on: MALME-3M melanoma
EKVX NSCLC = tested on: EKVX NSCLC
OVCAR-3 ovarian = tested on: OVCAR-3 ovarian
NCI/ADR-RES ovarian = tested on: NCI/ADR-RES ovarian
NCI-H460 lung = tested on: NCI-H460 lung
M14 melanoma = tested on: M14 melanoma
MOLT-4 leukemia = tested on: MOLT-4 leukemia
MDA-MB-231 breast = tested on: MDA-MB-231 breast
A498 renal = tested on: A498 renal
SK-MEL-2 melanoma = tested on: SK-MEL-2 melanoma
HOP-92 NSCLC = tested on: HOP-92 NSCLC
SK-MEL-5 melanoma = tested on: SK-MEL-5 melanoma
TK-10 renal = tested on: TK-10 renal
SR leukemia = tested on: SR leukemia
NCI-H23 lung = tested on: NCI-H23 lung
HCT-15 colon = tested on: HCT-15 colon
OVCAR-4 ovarian = tested on: OVCAR-4 ovarian
U251 CNS = tested on: U251 CNS
DU-145 prostate = tested on: DU-145 prostate
MDA-MB-435 = tested on: MDA-MB-435
SK-MEL-28 melanoma = tested on: SK-MEL-28 melanoma
HOP-62 NSCLC = tested on: HOP-62 NSCLC
BT-549 breast = tested on: BT-549 breast
SF-268 CNS = tested on: SF-268 CNS
LOX IMVI melanoma = tested on: LOX IMVI melanoma
IGROV1 ovarian = tested on: IGROV1 ovarian
HT29 colon = tested on: HT29 colon
CCRF-CEM leukemia = tested on: CCRF-CEM leukemia
SF-295 CNS = tested on: SF-295 CNS
MDA-N = tested on: MDA-N
UACC-62 melanoma = tested on: UACC-62 melanoma
RXF 393 renal = tested on: RXF 393 renal
A549 NSCLC = tested on: A549 NSCLC
SF-539 CNS = tested on: SF-539 CNS
SNB-19 CNS = tested on: SNB-19 CNS
KM12 colon = tested on: KM12 colon
SW-620 colon = tested on: SW-620 colon
SK-OV-3 ovarian = tested on: SK-OV-3 ovarian
OVCAR-8 ovarian = tested on: OVCAR-8 ovarian
CAKI-1 renal = tested on: CAKI-1 renal
UACC-257 melanoma = tested on: UACC-257 melanoma
SNB-75 CNS = tested on: SNB-75 CNS
K-562 leukemia = tested on: K-562 leukemia

CCCCCCCCCCCCCCCCOCC(O)CO (configuration not stated)
TGI (HS 578T breast): 39.7 µM | TGI (NCI-H522 lung): 33.2 µM | TGI (UO-31 renal): 32.4 µM | TGI (PC-3 prostate): 37.8 µM | TGI (T-47D breast): 46.2 µM | TGI (COLO 205 colon): 50.8 µM | TGI (MCF7 breast): 38.1 µM | TGI (ACHN renal): 33.6 µM | TGI (OVCAR-5 ovarian): 52.2 µM | TGI (HL-60(TB) leukemia): 23.4 µM | TGI (HCT-116 colon): 34.1 µM | TGI (HCC-2998 colon): 32.2 µM | TGI (RPMI-8226 leukemia): 37.4 µM | TGI (786-0 renal): 32.8 µM | TGI (SN12C renal): 36.3 µM | TGI (NCI-H226 lung): 40 µM | TGI (MALME-3M melanoma): 36.1 µM | TGI (EKVX NSCLC): 36.3 µM | TGI (OVCAR-3 ovarian): 46.7 µM | TGI (NCI/ADR-RES ovarian): 34.7 µM | TGI (NCI-H460 lung): 37.7 µM | TGI (M14 melanoma): 58 µM | TGI (MOLT-4 leukemia): 29.6 µM | TGI (MDA-MB-231 breast): 35.6 µM | TGI (A498 renal): 34.5 µM | TGI (SK-MEL-2 melanoma): 40.1 µM | TGI (HOP-92 NSCLC): 41.9 µM | TGI (SK-MEL-5 melanoma): 71.9 µM | TGI (TK-10 renal): 28.9 µM | TGI (SR leukemia): 28.5 µM | TGI (NCI-H23 lung): 37.2 µM | TGI (HCT-15 colon): 35.9 µM | TGI (OVCAR-4 ovarian): 46.1 µM | TGI (U251 CNS): 36.2 µM | TGI (DU-145 prostate): 34 µM | TGI (MDA-MB-435): 33.4 µM | TGI (SK-MEL-28 melanoma): 33.3 µM | TGI (HOP-62 NSCLC): 43 µM | TGI (BT-549 breast): 47 µM | TGI (SF-268 CNS): 36 µM | TGI (LOX IMVI melanoma): 33.4 µM | TGI (IGROV1 ovarian): 31.1 µM | TGI (HT29 colon): 31.8 µM | TGI (CCRF-CEM leukemia): 27.3 µM | TGI (SF-295 CNS): 30.3 µM | TGI (MDA-N): 60.6 µM | TGI (UACC-62 melanoma): 35.2 µM | TGI (RXF 393 renal): 35.7 µM | TGI (A549 NSCLC): 44 µM | TGI (SF-539 CNS): 31.5 µM | TGI (SNB-19 CNS): 52.4 µM | TGI (KM12 colon): 32.1 µM | TGI (SW-620 colon): 41.2 µM | TGI (SK-OV-3 ovarian): 31.3 µM | TGI (OVCAR-8 ovarian): 35.4 µM | TGI (CAKI-1 renal): 35 µM | TGI (UACC-257 melanoma): 35.7 µM

CC(NC(=O)C(Cc1ccc(OC(=O)c2ccccc2)cc1)NC(=O)OC(C)(C)C)C(=O)NCC(=O)NC(Cc1ccccc1)C(=O)NN (configuration not stated)
TGI (HS 578T breast): > 100 µM | TGI (NCI-H522 lung): > 100 µM | TGI (UO-31 renal): > 100 µM | TGI (PC-3 prostate): > 100 µM | TGI (T-47D breast): > 100 µM | TGI (COLO 205 colon): 53.2 µM | TGI (MCF7 breast): > 100 µM | TGI (ACHN renal): > 100 µM | TGI (OVCAR-5 ovarian): > 100 µM | TGI (HL-60(TB) leukemia): 41.5 µM | TGI (HCT-116 colon): > 100 µM | TGI (RPMI-8226 leukemia): 38.1 µM | TGI (786-0 renal): > 100 µM | TGI (NCI-H226 lung): > 100 µM | TGI (MALME-3M melanoma): > 100 µM | TGI (EKVX NSCLC): > 100 µM | TGI (OVCAR-3 ovarian): > 100 µM | TGI (NCI/ADR-RES ovarian): > 100 µM | TGI (NCI-H460 lung): > 100 µM | TGI (M14 melanoma): > 100 µM | TGI (MOLT-4 leukemia): 69.4 µM | TGI (SNB-75 CNS): > 100 µM | TGI (MDA-MB-231 breast): > 100 µM | TGI (A498 renal): > 100 µM | TGI (HOP-92 NSCLC): > 100 µM | TGI (SK-MEL-5 melanoma): > 100 µM | TGI (TK-10 renal): > 100 µM | TGI (SR leukemia): 56.9 µM | TGI (NCI-H23 lung): > 100 µM | TGI (HCT-15 colon): > 100 µM | TGI (OVCAR-4 ovarian): > 100 µM | TGI (U251 CNS): > 100 µM | TGI (DU-145 prostate): > 100 µM | TGI (MDA-MB-435): > 100 µM | TGI (SK-MEL-28 melanoma): > 100 µM | TGI (HOP-62 NSCLC): > 100 µM | TGI (BT-549 breast): > 100 µM | TGI (SF-268 CNS): > 100 µM | TGI (LOX IMVI melanoma): 45 µM | TGI (IGROV1 ovarian): > 100 µM | TGI (HT29 colon): > 100 µM | TGI (SF-295 CNS): > 100 µM | TGI (MDA-N): > 100 µM | TGI (UACC-62 melanoma): > 100 µM | TGI (RXF 393 renal): > 100 µM | TGI (A549 NSCLC): > 100 µM | TGI (SF-539 CNS): > 100 µM | TGI (SNB-19 CNS): > 100 µM | TGI (KM12 colon): > 100 µM | TGI (SW-620 colon): > 100 µM | TGI (SK-OV-3 ovarian): > 100 µM | TGI (OVCAR-8 ovarian): > 100 µM | TGI (K-562 leukemia): 76.4 µM | TGI (CAKI-1 renal): > 100 µM

CCOC(=O)c1cc(Br)c(-c2cc(C)co2)[nH]1
TGI (HS 578T breast): > 100 µM | TGI (UO-31 renal): > 100 µM | TGI (PC-3 prostate): > 100 µM | TGI (T-47D breast): > 100 µM | TGI (COLO 205 colon): > 100 µM | TGI (MCF7 breast): > 100 µM | TGI (OVCAR-5 ovarian): > 100 µM | TGI (HL-60(TB) leukemia): > 100 µM | TGI (HCT-116 colon): > 100 µM | TGI (HCC-2998 colon): > 100 µM | TGI (RPMI-8226 leukemia): > 100 µM | TGI (786-0 renal): > 100 µM | TGI (SN12C renal): > 100 µM | TGI (NCI-H226 lung): > 100 µM | TGI (MALME-3M melanoma): > 100 µM | TGI (EKVX NSCLC): > 100 µM | TGI (OVCAR-3 ovarian): > 100 µM | TGI (NCI/ADR-RES ovarian): > 100 µM | TGI (NCI-H460 lung): > 100 µM | TGI (M14 melanoma): > 100 µM | TGI (MOLT-4 leukemia): > 100 µM | TGI (SNB-75 CNS): > 100 µM | TGI (MDA-MB-231 breast): > 100 µM | TGI (A498 renal): > 100 µM | TGI (SK-MEL-2 melanoma): > 100 µM | TGI (HOP-92 NSCLC): > 100 µM | TGI (SK-MEL-5 melanoma): > 100 µM | TGI (SR leukemia): > 100 µM | TGI (NCI-H23 lung): > 100 µM | TGI (HCT-15 colon): > 100 µM | TGI (OVCAR-4 ovarian): > 100 µM | TGI (U251 CNS): > 100 µM | TGI (DU-145 prostate): > 100 µM | TGI (MDA-MB-435): > 100 µM | TGI (SK-MEL-28 melanoma): > 100 µM | TGI (HOP-62 NSCLC): > 100 µM | TGI (BT-549 breast): > 100 µM | TGI (SF-268 CNS): > 100 µM | TGI (LOX IMVI melanoma): > 100 µM | TGI (IGROV1 ovarian): > 100 µM | TGI (HT29 colon): > 100 µM | TGI (CCRF-CEM leukemia): > 100 µM | TGI (SF-295 CNS): > 100 µM | TGI (MDA-N): > 100 µM | TGI (UACC-62 melanoma): > 100 µM | TGI (RXF 393 renal): > 100 µM | TGI (A549 NSCLC): > 100 µM | TGI (SF-539 CNS): > 100 µM | TGI (SNB-19 CNS): > 100 µM | TGI (KM12 colon): > 100 µM | TGI (SW-620 colon): > 100 µM | TGI (SK-OV-3 ovarian): > 100 µM | TGI (OVCAR-8 ovarian): > 100 µM | TGI (K-562 leukemia): > 100 µM | TGI (CAKI-1 renal): > 100 µM | TGI (UACC-257 melanoma): > 100 µM
